Measured values from patent US8435980B2 (AbbVie Inc., priority 2009, dated 2013).
pKi: −log10 of the molar value.

Target: T1, Cdc7 (BEV coexpressed huCDC7/DBF4) (Homo sapiens, UniProt O00311)
T1 construct: made in house; host or cells: BEV (baculovirus expression vector) co-expression; insect cells are implied but no cell line is named
Assay: Cdc7 enzyme inhibition assay ([33P]ATP, biotinylated peptide substrate, FlashPlate)
Assay type: biochemical
Conditions: Table 3; enzyme inhibition data (Ki)
Method: Cdc7 (BEV coexpressed huCDC7/DBF4) is prepared internally. Cdc7 assays are conducted as follows with final concentrations as listed. […] Reactions are quenched after 1 hr by the addition of 90 μL stop buffer (50 mM EDTA, 2M NaCl). […] (Ki) for exemplary compounds.

T1 sequence (O00311 whole entry): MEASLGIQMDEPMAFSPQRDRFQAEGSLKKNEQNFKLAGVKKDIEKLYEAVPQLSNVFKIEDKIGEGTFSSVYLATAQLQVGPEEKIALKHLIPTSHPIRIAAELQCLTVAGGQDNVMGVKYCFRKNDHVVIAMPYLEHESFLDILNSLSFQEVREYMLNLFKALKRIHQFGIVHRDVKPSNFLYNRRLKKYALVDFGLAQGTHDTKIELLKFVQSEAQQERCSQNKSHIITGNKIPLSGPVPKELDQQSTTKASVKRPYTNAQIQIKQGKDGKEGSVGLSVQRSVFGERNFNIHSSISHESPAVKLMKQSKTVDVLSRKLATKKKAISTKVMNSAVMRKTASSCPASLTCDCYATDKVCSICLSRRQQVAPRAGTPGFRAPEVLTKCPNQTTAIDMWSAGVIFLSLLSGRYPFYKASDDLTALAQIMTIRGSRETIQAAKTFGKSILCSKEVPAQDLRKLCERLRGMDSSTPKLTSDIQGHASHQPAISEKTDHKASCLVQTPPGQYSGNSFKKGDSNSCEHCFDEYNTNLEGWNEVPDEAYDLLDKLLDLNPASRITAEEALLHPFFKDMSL
T1 sequence (Q9UBU7 whole entry partner): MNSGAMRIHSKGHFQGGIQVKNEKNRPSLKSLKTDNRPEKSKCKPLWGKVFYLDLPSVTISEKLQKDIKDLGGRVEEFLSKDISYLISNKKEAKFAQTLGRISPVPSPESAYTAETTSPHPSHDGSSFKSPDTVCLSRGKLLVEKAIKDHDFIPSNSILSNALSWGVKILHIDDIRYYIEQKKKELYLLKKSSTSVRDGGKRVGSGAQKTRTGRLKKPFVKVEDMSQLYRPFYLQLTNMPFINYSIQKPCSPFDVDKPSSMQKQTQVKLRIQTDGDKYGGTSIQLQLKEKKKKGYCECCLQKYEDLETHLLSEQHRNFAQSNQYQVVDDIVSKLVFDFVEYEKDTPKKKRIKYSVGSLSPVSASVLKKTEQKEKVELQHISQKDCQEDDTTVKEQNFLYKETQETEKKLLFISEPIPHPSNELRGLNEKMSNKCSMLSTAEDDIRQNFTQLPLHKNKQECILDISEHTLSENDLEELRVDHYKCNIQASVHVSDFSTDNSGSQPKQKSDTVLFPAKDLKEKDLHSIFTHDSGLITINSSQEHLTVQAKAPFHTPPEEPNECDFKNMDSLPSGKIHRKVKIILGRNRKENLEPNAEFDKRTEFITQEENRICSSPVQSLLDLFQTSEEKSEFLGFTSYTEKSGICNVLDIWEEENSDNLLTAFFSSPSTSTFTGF

pKi	Compound
> 8.00	CC(=O)N1CCC(NC2CCC(Nc3cc(-c4c[nH]c5ncccc45)cc(Cl)n3)CC2)CC1 (stereo not drawn) [Example 369, 1-{4-[(4-{[6-chloro-4-(1H-pyrrolo[2,3-b]pyridin-3-yl)pyridin-2-yl]amino}cyclohexyl)amino]piperidin-1-yl}ethanone]
7.00 to 8.00	CS(=O)(=O)N1CCC(C2CCC(N(c3cc(-c4c[nH]c5ncccc45)cc(Cl)n3)S(C)(=O)=O)CC2)CC1 (stereo not drawn) [Example 370, N-[6-chloro-4-(1H-pyrrolo[2,3-b]pyridin-3-yl)pyridin-2-yl]-N-{4-[1-(methylsulfonyl)piperidin-4-yl]cyclohexyl}methanesulfonamide]
> 8.00	CN1CCCC(C2CCC(Nc3cc(-c4c[nH]c5ncccc45)cc(Cl)n3)CC2)C1 (stereo not drawn) [Example 371, 6-chloro-N-[4-(1-methylpiperidin-3-yl)cyclohexyl]-4-(1H-pyrrolo[2,3-b]pyridin-3-yl)pyridin-2-amine]
> 8.00	CN1CCCC(C2CCC(N(C)c3cc(-c4c[nH]c5ncccc45)cc(Cl)n3)CC2)C1 (stereo not drawn) [Example 372, 6-chloro-N-methyl-N-[4-(1-methylpiperidin-3-yl)cyclohexyl]-4-(1H-pyrrolo[2,3-b]pyridin-3-yl)pyridin-2-amine]
> 8.00	O=C(NCCS(=O)(=O)N[C@H]1CC[C@H](Nc2cc(-c3c[nH]c4ncccc34)cc(Cl)n2)CC1)C1CC1 [Example 373, N-{2-[(trans-4-{[6-chloro-4-(1H-pyrrolo[2,3-b]pyridin-3-yl)pyridin-2-yl]amino}cyclohexyl)sulfamoyl]ethyl} cyclopropanecarboxamide]
> 8.00	OCCCNc1cc(-c2c[nH]c3ncccc23)cc(Cl)n1 [Example 374, 3-{[6-chloro-4-(1H-pyrrolo[2,3-b]pyridin-3-yl)pyridin-2-yl]amino}propan-1-ol]
7.00 to 8.00	Clc1cc(-c2c[nH]c3ncccc23)cc(NCCCN2CCOCC2)n1 [Example 375, 6-chloro-N-[3-(morpholin-4-yl)propyl]-4-(1H-pyrrolo[2,3-b]pyridin-3-yl)pyridin-2-amine]
> 8.00	Clc1cc(-c2c[nH]c3ncccc23)cc(NCCCn2ccnc2)n1 [Example 376, 6-chloro-N-[3-(1H-imidazol-1-yl)propyl]-4-(1H-pyrrolo[2,3-b]pyridin-3-yl)pyridin-2-amine]
> 8.00	OCCCCCNc1cc(-c2c[nH]c3ncccc23)cc(Cl)n1 [Example 377, 5-{[6-chloro-4-(1H-pyrrolo[2,3-b]pyridin-3-yl)pyridin-2-yl]amino}pentan-1-ol]
> 8.00	Clc1cc(-c2c[nH]c3ncccc23)cc(NCCc2cccnc2)n1 [Example 378, 6-chloro-N-[2-(pyridin-3-yl)ethyl]-4-(1H-pyrrolo[2,3-b]pyridin-3-yl)pyridin-2-amine]
> 8.00	NC1CCC(N2CCC(Nc3cc(-c4c[nH]c5ncccc45)cc(Cl)n3)CC2)CC1 (stereo not drawn) [Example 379, N-[1-(4-aminocyclohexyl)piperidin-4-yl]-6-chloro-4-(1H-pyrrolo[2,3-b]pyridin-3-yl)pyridin-2-amine]
> 8.00	CN1CCC(C2CCC(N(C)c3cc(-c4c[nH]c5ncccc45)cc(Cl)n3)CC2)C1 (stereo not drawn) [Example 380, 6-chloro-N-methyl-N-[4-(1-methylpyrrolidin-3-yl)cyclohexyl]-4-(1H-pyrrolo[2,3-b]pyridin-3-yl)pyridin-2-amine]
> 8.00	O=C(N[C@H]1CC[C@H](Nc2cc(-c3c[nH]c4ncccc34)cc(Cl)n2)CC1)C1CN(Cc2ccccc2)C1 [Example 381, 1-benzyl-N-(trans-4-{[6-chloro-4-(1H-pyrrolo[2,3-b]pyridin-3-yl)pyridin-2-yl]amino}cyclohexyl)azetidine-3-carboxamide]
> 8.00	COc1cc(Cl)ccc1C(=O)N[C@H]1CC[C@H](Nc2cc(-c3c[nH]c4ncccc34)cc(Cl)n2)CC1 [Example 382, 4-chloro-N-(trans-4-{[6-chloro-4-(1H-pyrrolo[2,3-b]pyridin-3-yl)pyridin-2-yl]amino}cyclohexyl)-2-methoxybenzamide]
> 8.00	O=C(N[C@H]1CC[C@H](Nc2cc(-c3c[nH]c4ncccc34)cc(Cl)n2)CC1)c1cccc(C(F)(F)F)c1 [Example 383, N-(trans-4-{[6-chloro-4-(1H-pyrrolo[2,3-b]pyridin-3-yl)pyridin-2-yl]amino}cyclohexyl)-3-(trifluoromethyl)benzamide]
7.00 to 8.00	Clc1cnc2[nH]cc(-c3cc(Cl)nc(NC4CCCCC4)c3)c2c1 [Example 384, 6-chloro-4-(5-chloro-1H-pyrrolo[2,3-b]pyridin-3-yl)-N-cyclohexylpyridin-2-amine]
> 8.00	O=C(N[C@H]1CC[C@H](Nc2cc(-c3c[nH]c4ncccc34)cc(Cl)n2)CC1)c1cccc(Cl)c1 [Example 385, 3-chloro-N-(trans-4-{[6-chloro-4-(1H-pyrrolo[2,3-b]pyridin-3-yl)pyridin-2-yl]amino}cyclohexyl)benzamide]
> 8.00	Clc1cc(-c2c[nH]c3ncccc23)cc(NCCc2ccccn2)n1 [Example 387, 6-chloro-N-[2-(pyridin-2-yl)ethyl]-4-(1H-pyrrolo[2,3-b]pyridin-3-yl)pyridin-2-amine]

pKi	Compound
> 8.00	Clc1cc(-c2c[nH]c3ncccc23)cc(NCCc2ccccc2)n1 [Example 388, 6-chloro-N-(2-phenylethyl)-4-(1H-pyrrolo[2,3-b]pyridin-3-yl)pyridin-2-amine]
7.00 to 8.00	CN1CCN(CCCNc2cc(-c3c[nH]c4ncccc34)cc(Cl)n2)CC1 [Example 389, 6-chloro-N-[3-(4-methylpiperazin-1-yl)propyl]-4-(1H-pyrrolo[2,3-b]pyridin-3-yl)pyridin-2-amine]
> 8.00	Clc1cc(-c2c[nH]c3ncccc23)cc(NCCOc2ccccc2)n1 [Example 390, 6-chloro-N-(2-phenoxyethyl)-4-(1H-pyrrolo[2,3-b]pyridin-3-yl)pyridin-2-amine]
> 8.00	CN(C)CCCNc1cc(-c2c[nH]c3ncccc23)cc(Cl)n1 [Example 391, N′-[6-chloro-4-(1H-pyrrolo[2,3-b]pyridin-3-yl)pyridin-2-yl]-N,N-dimethylpropane-1,3-diamine]
> 8.00	Clc1cc(-c2c[nH]c3ncccc23)cc(NC2CCN(Cc3ccccc3)C2)n1 (stereo not drawn) [Example 392, N-(1-benzylpyrrolidin-3-yl)-6-chloro-4-(1H-pyrrolo[2,3-b]pyridin-3-yl)pyridin-2-amine]
> 8.00	O=C(NCCS(=O)(=O)N[C@H]1CC[C@H](Nc2cc(-c3c[nH]c4ncccc34)cc(Cl)n2)CC1)c1ccc(F)cc1F [Example 393, N-{2-[(trans-4-{[6-chloro-4-(1H-pyrrolo[2,3-b]pyridin-3-yl)pyridin-2-yl]amino}cyclohexyl)sulfamoyl]ethyl}-2,4-difluorobenzamide]
> 8.00	O=C(N[C@H]1CC[C@H](Nc2cc(-c3c[nH]c4ncccc34)cc(Cl)n2)CC1)C1CN(Cc2cccc(C(F)(F)F)c2)C1 [Example 394, N-(trans-4-{[6-chloro-4-(1H-pyrrolo[2,3-b]pyridin-3-yl)pyridin-2-yl]amino}cyclohexyl)-1-[3-(trifluoromethyl)benzyl]azetidine-3-carboxamide]
> 8.00	O=C(N[C@H]1CC[C@H](Nc2cc(-c3c[nH]c4ncccc34)cc(Cl)n2)CC1)C1CN(Cc2ccc(Cl)cc2Cl)C1 [Example 395, N-(trans-4-{[6-chloro-4-(1H-pyrrolo[2,3-b]pyridin-3-yl)pyridin-2-yl]amino}cyclohexyl)-1-(2,4-dichlorobenzyl)azetidine-3-carboxamide]
> 8.00	COc1ccc(CNc2cc(-c3c[nH]c4ncccc34)cc(Cl)n2)cc1 [Example 397, 6-chloro-N-(4-methoxybenzyl)-4-(1H-pyrrolo[2,3-b]pyridin-3-yl)pyridin-2-amine]
> 8.00	Oc1ccc(CCNc2cc(-c3c[nH]c4ncccc34)cc(Cl)n2)cc1 [Example 398, 4-(2-{[6-chloro-4-(1H-pyrrolo[2,3-b]pyridin-3-yl)pyridin-2-yl]amino}ethyl)phenol]
> 8.00	Clc1cc(-c2c[nH]c3ncccc23)cc(NCCc2ccc3c(c2)OCO3)n1 [Example 399, N-[2-(1,3-benzodioxol-5-yl)ethyl]-6-chloro-4-(1H-pyrrolo[2,3-b]pyridin-3-yl)pyridin-2-amine]
> 8.00	Clc1cc(-c2c[nH]c3ncccc23)cc(NCc2ccc3c(c2)OCO3)n1 [Example 400, N-(1,3-benzodioxol-5-ylmethyl)-6-chloro-4-(1H-pyrrolo[2,3-b]pyridin-3-yl)pyridin-2-amine]
> 8.00	COc1ccc(CCNc2cc(-c3c[nH]c4ncccc34)cc(Cl)n2)cc1 [Example 401, 6-chloro-N-[2-(4-methoxyphenyl)ethyl]-4-(1H-pyrrolo[2,3-b]pyridin-3-yl)pyridin-2-amine]
> 8.00	Clc1cc(-c2c[nH]c3ncccc23)cc(NC2CCN(Cc3ccccc3)CC2)n1 [Example 402, N-(1-benzylpiperidin-4-yl)-6-chloro-4-(1H-pyrrolo[2,3-b]pyridin-3-yl)pyridin-2-amine]
> 8.00	Clc1cc(-c2c[nH]c3ncccc23)cc(NCCc2ccncc2)n1 [Example 403, 6-chloro-N-[2-(pyridin-4-yl)ethyl]-4-(1H-pyrrolo[2,3-b]pyridin-3-yl)pyridin-2-amine]
> 8.00	Clc1cc(-c2c[nH]c3ncccc23)cc(NC2Cc3ccccc3C2)n1 [Example 404, 6-chloro-N-(2,3-dihydro-1H-inden-2-yl)-4-(1H-pyrrolo[2,3-b]pyridin-3-yl)pyridin-2-amine]
> 8.00	Clc1cc(-c2c[nH]c3ncccc23)cc(NCCc2c[nH]c3ccccc23)n1 [Example 405, 6-chloro-N-[2-(1H-indol-3-yl)ethyl]-4-(1H-pyrrolo[2,3-b]pyridin-3-yl)pyridin-2-amine]

Compound	pKi
COc1ccc(CNc2cc(-c3c[nH]c4ncccc34)cc(Cl)n2)cc1OC [Example 386]	7.00 to 8.00
